pKi: −log10 of the molar value.
Columns and labels:
[1] = target: T1, α1a-AR (Homo sapiens, UniProt P35348); assay: α1-Adrenergic receptor radio-ligand (125I-HEAT) binding assay, α1a subtype; settings: membranes of transfected COS-7 cells, 125I-HEAT 50 pM
T1 construct: expressed in transfected cells; host or cells: COS-7 (African green monkey kidney) membranes
T1 sequence (P35348 1-455 isoform P35348-4): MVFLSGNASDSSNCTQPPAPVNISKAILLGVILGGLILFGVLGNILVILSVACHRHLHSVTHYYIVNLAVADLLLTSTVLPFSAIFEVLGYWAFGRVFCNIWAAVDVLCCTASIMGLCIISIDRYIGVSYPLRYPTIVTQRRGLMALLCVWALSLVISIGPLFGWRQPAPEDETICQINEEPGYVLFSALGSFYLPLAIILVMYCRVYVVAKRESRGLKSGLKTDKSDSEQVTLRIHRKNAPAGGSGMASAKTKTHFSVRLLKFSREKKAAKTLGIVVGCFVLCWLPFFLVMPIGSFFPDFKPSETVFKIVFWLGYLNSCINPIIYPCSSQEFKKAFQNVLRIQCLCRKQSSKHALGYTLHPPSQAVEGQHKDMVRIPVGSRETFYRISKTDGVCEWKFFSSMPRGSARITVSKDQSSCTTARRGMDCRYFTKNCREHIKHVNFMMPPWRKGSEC
Method: (§1) α1-Adrenergic Receptor Binding Assay
(§2) Preparation of COS Cell Membranes
(§3) Membranes were prepared from COS-7 cells (African Green monkey kidney SV40-transformed cells) that had been transfected with one of the three α1-AR subtypes (Genbank accession number for the α1a subtype: AF013261; Genbank accession number for the α1b subtype: NM000679; Genbank accession number for the α1d subtype: NM000678) using the following method: COS cells from ten 100 mm tissue culture plates were scraped into a 5 mL volume of TE (a mixture of 50 mM Tris-HCl, 5 mM EDTA, pH 7.4). The cell suspension was disrupted with a Brinkman Polytron (at a setting of 8) for 10 sec. The disrupted cells were centrifuged at 1000×g for 10 min at 4° C. Supernatants were centrifuged at 34,500×g for 20 min at 4° C. The membrane pellets were suspended in a 2 mL volume of TNE (a mixture of 50 mM Tris-HCl, 5 mM EDTA and 150 mM NaCl at pH 7.4). An aliquot of the membrane suspension was stored at −70° C. until use. The protein concentration was determined using the BioRad “DC” protein assay kit following membrane solubilization with Triton X-100.
(§4) Radio-ligand Binding Assay
(§5) Triplicate determinations of radio-ligand binding in the presence of increasing concentrations of testing compound were made. The reagents were added to 96-well polypropylene plate wells. Each assay well contained 140 μL TNE, 25 μL ^125I-2-(β-4-hydroxyphenyl)ethylaminomethyltetralone (^125I-HEAT) (specific activity 2200 Ci/mmol, Dupont-New England Nuclear, 50 pM final), 10 μL testing compound dissolved in dimethyl sulfoxide (DMSO) (1 pM to 10 μM in half-log increments, final), and 25 μL appropriate α1-AR membrane subtype suspension in TNE (0.5 ng/μL for the α1a and α1b subtypes and 13 ng/μL for the α1d subtype). The plate was incubated at rt for 1 hr. The contents of the wells were filtered through a glass filter (type C) (GF/C) membrane Unifilter plate (Packard Instruments) using the Packard Filtermate cell harvester. The filter plates were dried in a vacuum oven for 30 min at 40° C. 25 μL Microscint 20 liquid scintillation fluid (Packard Instuments) was added to each well. The radioactive content was analyzed in the TopCount microplate scintillation counter (Packard Instruments).
(§6) The Ki values (in nM) shown in Table 1 were determined using GraphPad Prism software.

[2] = target: T2, α1b-AR (Homo sapiens, UniProt P35368); assay: α1-Adrenergic receptor radio-ligand (125I-HEAT) binding assay, α1b subtype; settings: membranes of transfected COS-7 cells, 125I-HEAT 50 pM
T2 construct: expressed in transfected cells; host or cells: COS-7 (African green monkey kidney) membranes
T2 sequence (P35368 1-520): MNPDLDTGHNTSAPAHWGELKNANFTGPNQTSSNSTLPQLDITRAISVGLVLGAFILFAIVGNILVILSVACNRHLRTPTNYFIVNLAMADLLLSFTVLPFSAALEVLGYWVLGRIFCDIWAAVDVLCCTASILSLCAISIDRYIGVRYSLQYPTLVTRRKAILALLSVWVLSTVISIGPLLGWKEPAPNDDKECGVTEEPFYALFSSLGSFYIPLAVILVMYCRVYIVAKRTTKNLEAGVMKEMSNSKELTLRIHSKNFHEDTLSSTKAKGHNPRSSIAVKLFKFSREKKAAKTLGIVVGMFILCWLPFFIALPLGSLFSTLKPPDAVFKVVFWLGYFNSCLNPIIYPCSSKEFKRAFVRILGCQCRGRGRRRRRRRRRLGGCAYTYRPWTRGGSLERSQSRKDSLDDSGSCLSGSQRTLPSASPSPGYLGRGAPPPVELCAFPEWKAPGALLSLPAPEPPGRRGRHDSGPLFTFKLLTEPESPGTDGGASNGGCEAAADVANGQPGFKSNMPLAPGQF
Method: as §1, §2, §3, §4, §5, §6

[3] = target: T3, α1d-AR (Homo sapiens, UniProt P25100); assay: α1-Adrenergic receptor radio-ligand (125I-HEAT) binding assay, α1d subtype; settings: membranes of transfected COS-7 cells, 125I-HEAT 50 pM
T3 construct: expressed in transfected cells; host or cells: COS-7 (African green monkey kidney) membranes
T3 sequence (P25100 1-572): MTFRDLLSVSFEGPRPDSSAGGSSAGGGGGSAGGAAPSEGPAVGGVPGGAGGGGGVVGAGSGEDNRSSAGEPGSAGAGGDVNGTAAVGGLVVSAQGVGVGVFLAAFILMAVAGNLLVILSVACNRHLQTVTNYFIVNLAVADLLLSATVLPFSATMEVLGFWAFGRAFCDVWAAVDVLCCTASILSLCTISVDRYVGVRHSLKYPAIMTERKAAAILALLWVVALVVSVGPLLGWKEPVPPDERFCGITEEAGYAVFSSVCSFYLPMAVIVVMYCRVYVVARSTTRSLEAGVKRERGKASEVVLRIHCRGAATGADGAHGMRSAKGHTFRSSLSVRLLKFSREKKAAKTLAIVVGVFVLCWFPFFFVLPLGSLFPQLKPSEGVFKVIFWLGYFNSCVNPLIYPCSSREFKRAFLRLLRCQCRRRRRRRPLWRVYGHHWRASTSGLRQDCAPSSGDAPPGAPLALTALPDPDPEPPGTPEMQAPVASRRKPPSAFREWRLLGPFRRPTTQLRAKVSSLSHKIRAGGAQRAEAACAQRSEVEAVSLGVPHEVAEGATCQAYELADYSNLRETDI
Method: as §1, §2, §3, §4, §5, §6

[4] = system: α1a and α1d subtypes over the α1b subtype; settings: cited from earlier work

Row | Compound | pKi [1] | pKi [2] | pKi [3] | selectivity for the α1a and α1d subtypes over the α1b subtype [4]
1 | COc1ccc(Cl)cc1S(=O)(=O)N[C@H]1CC[C@@H](N2CCN(c3ncccc3OC(C)C)CC2)CC1 [Cpd 5, 5-chloro-N-cis-{4-[4-(3-isopropoxy-pyridin-2-yl)-piperazin-1-yl]-cyclohexyl}-2-methoxy-benzenesulfonamide] | 7.97 | 6.40 | 7.91 | 
2 | COc1ccc(S(=O)(=O)N[C@H]2CC[C@@H](N3CCN(c4ncccc4OC(C)C)CC3)CC2)cc1OC [Cpd 3, N-cis-{4-[4-(3-isopropoxy-pyridin-2-yl)-piperazin-1-yl]-cyclohexyl}-3,4-dimethoxy-benzenesulfonamide] | 7.21 | 6.95 | 7.72 | 
3 | O=S(=O)(N[C@H]1CC[C@@H](N2CCN(c3ncccc3OCC3CC3)CC2)CC1)c1cc(Cl)ccc1F [Cpd 11, 5-chloro-N-cis-{4-[4-(3-cyclopropylmethoxy-pyridin-2-yl)-piperazin-1-yl]-cyclohexyl}-2-fluoro-benzenesulfonamide] | 7.45 | 6.02 | 7.36 | 
4 | CC(C)Oc1cccnc1N1CCN([C@H]2CC[C@@H](NS(=O)(=O)c3cc(Cl)ccc3F)CC2)CC1 [Cpd 7, 5-chloro-2-fluoro-N-cis-{4-[4-(3-isopropoxy-pyridin-2-yl)-piperazin-1-yl]-cyclohexyl}-benzenesulfonamide] | 7.35 | 5.73 | 7.82 | 
5 | COc1ccc(S(=O)(=O)N[C@H]2CC[C@@H](N3CCN(c4ncccc4OCC4CC4)CC3)CC2)cc1OC [Cpd 1, N-cis-{4-[4-(3-cyclopropylmethoxy-pyridin-2-yl)-piperazin-1-yl]-cyclohexyl}-3,4-dimethoxy-benzenesulfonamide] | 6.72 | 6.44 | 7.19 | 
6 | CCOc1ccccc1OCCN[C@H](C)Cc1ccc(OC)c(S(N)(=O)=O)c1 [Tamsulosin] |  |  |  | about 15 fold
7 | COc1ccc(Cl)cc1S(=O)(=O)N[C@H]1CC[C@@H](N2CCN(c3ncccc3OCC3CC3)CC2)CC1 [Cpd 9, 5-chloro-N-cis-{4-[4-(3-cyclopropylmethoxy-pyridin-2-yl)-piperazin-1-yl]-cyclohexyl}-2-methoxy-benzenesulfonamide] | 7.73 | 6.22 | 7.32 | 
